From US10301624B2, “Targeting human satellite II (HSATII)” (The General Hospital Corporation, priority 2014, dated 2019)

Tests used:
Format in all cases: cell-based, human
[1] = test system: SW620; test: Cell viability in 3D non-adherent and 2D adherent culture, SW620; settings: SW620, non-adherent conditions, Nec-1 10 μM
Procedure: (§1) FIGS. 14A-D. Effect of Locked Nucleic Acids targeting HSATII on TP53 mutant Colorectal Cancer cell lines. […] Error bars represent standard deviation. P-value was calculated using student's two tailed t-test. *represents P<0.05.
(§2) Cells were transfected with LNAs either targeting HSATII or with non-specific control Locked Nucleic Acids at 500 nM concentrations using Lipofectamine 2000 according to manufacturer recommended conditions. Cells were trypsinized 24 hours after transfection and seeded at concentration of 1000 cells per well in 96 well plates either in 2 dimensional or 3 dimensional culture conditions. For 2D conditions, the cells were transferred to cell culture treated 96 well plates and grown in RPMI+10% FBS. For 3D conditions, cells were grown in (RPMI+10% FBS+) in ultra-low attachment 96 well plates.

[2] = test system: DLD1; test: Cell viability in 3D non-adherent and 2D adherent culture, DLD1
Procedure: as §1, §2

[3] = test system: COLO205 cells; test: Proliferation assay (CellTiter-Glo), COLO205
Procedure: FIG. 8. Proliferation assay of DMSO- or ddC-treated COLO205 (top) and HCT116 (bottom) cells. Cells were seeded at a density of 5×10^2 cells/well in a 96-well plate and quantified daily using CellTiter-Glo luminescent cell viability assay.
(§3) For proliferation assays, cells were seeded at a density of 5×10^2 cells/well in a 96-well plate (Corning) in presence of DMSO/ddC (100 μM) or one day after transfection with control/HSATII antisense oligonucleotides. Daily quantification was performed using CellTiter-Glo luminescent cell viability assay (Promega) with a SpectraMax M5 microplate reader (Molecular Devices).
50 nM ON-TARGETplus Non-targeting pool siRNA (Thermo Scientific) and Mission Pre-designed TERT siRNAs (Sigma Aldrich) or 500 nM Negative Control and HSATII LNA antisense oligonucleotides (Exiqon) were electroporated into COLO205 cells according to the Neon Transfection System (Invitrogen/Life Technology) instructions using the following conditions: 1600V; pulse width 10; 3 pulses. 500 nM Negative Control/HSATII LNA antisense oligonucleotides were transfected in HCT116 and SW620 cells using Lipofectamine 2000 (Invitrogen/Life Technologies) according to the manufacturer's instructions.

[4] = test system: HCT116; test: Cell growth in 3D and 2D culture, HCT116 (with or without shRNA TP53 knockdown); settings: for susceptibility to ddC: HCT116 with shRNA TP53 knockdown
Procedure: (§4) FIGS. 15A-D. Effect of Locked Nucleic Acids targeting HSATII on TP53 wild type Colorectal Cancer cell lines. […] Error bars represent standard deviation. P-value was calculated using student's two tailed t-test.
FIGS. 19A-F. HCT116 cells are resistant to HSATII targeting and Reverse Transcriptase inhibition. […] Error bars represent standard deviation. P-value was calculated using student's two tailed t-test.
as §2
(§5) Stable cell lines carrying either one of two shRNAs targeting TP53, or a non-target shRNA using lentiviral infection, were generated.

[5] = test system: HCT116 cells; test: Proliferation assay (CellTiter-Glo), HCT116; settings: cells without endogenous HSATII expression, adherent growth, ddC 100 μM vs DMSO
Procedure: as §3, with “FIG. 8. Proliferation assay of DMSO- or ddC-treated COLO205 (top) and HCT116 (bottom) cells. Cells were seeded at a density of 5×10^2 cells/well in a 96-well plate and quantified daily using CellTiter-Glo luminescent cell viability assay. For” for “For”, “control/[…]” for “control/HSATII”

[6] = test system: HCT8; test: Cell growth in 3D and 2D culture, HCT8 (with or without shRNA TP53 knockdown)
Procedure: as §4
FIGS. 18A-F. TP53 knockdown sensitizes HCT8 cells to HSATII targeted Locked Nucleic Acids and Reverse Transcriptase inhibition. HCT8 colorectal cancer cells are resistant to the reverse transcriptase inhibitor ddC under 3D (A) and 2D (D) growth conditions. shRNA mediated knockdown of TP53 sensitizes the cells to reverse transcriptase inhibition under 3D (B-C), but not 2D (E-F) growth conditions. TP53 knockdown sensitizes HCT8 cells to HSATII targeted Locked Nucleic Acids under 3D (B-C), but not 2D (E-F) growth conditions. Error bars represent standard deviation. P-value was calculated using student's two tailed t-test. *represents P<0.05, **represents P<0.01.
as §2, §5

[7] = test system: HSATII-chr10 locus; test: qPCR analysis on HSATII-chr10 locus after DNase I or RNase A treatment of COLO205 extracts; settings: COLO205 cells, ddC 100 μM for two weeks vs DMSO
Description: FIGS. 3A-C. HSATII RNA-to-DNA conversion occurs through a reverse transcription mechanism. (A) qPCR analysis on HSATII-chr10 locus following DNAse I or RNase A treatment and reverse transcription of extracts obtained from COLO205 cells treated with DMSO or 2′, 3′-dideoxycytidine (ddC). (B) RIP lysates prepared from SW620 2D cultures or xenografts were immunoprecipitated with hTERT or IgG antibody, reverse transcribed and validated by qPCR for HSATII and TERC RNA enrichment. (C) qPCR analysis on HSATII-chr10 locus in COLO205 extracts 72 h after non-targeting (siNT) or TERT-targeting (siTERT) siRNA transfection. For all charts, values represent average of at least three independent experiments ±SEM. *P<0.05 (Student's t test).
All colon cancer cell lines were cultured in RPMI-1640+10% FBS+1% Pen/Strep (Gibco/Life Technologies). DMEM with the same supplements was used for 293T cells. For drug treatment, cells were cultured in presence of either DMSO or 100 μM 2′, 3′-dideoxycytidine (ddC, Sigma) for two weeks. […]
RNA was reverse transcribed using a SuperScript III First-Strand Synthesis kit (Invitrogen/Life Technologies) and cDNA was analyzed by qPCR using either Power SYBR-Green PCR Maser Mix or TaqMan Universal Master Mix on an ABI/PRISM 7500 platform (all reagents were from Applied Biosystems/Life Technologies). […]

CN1C(=O)C(Cc2c[nH]c3ccccc23)NC1=S (stereo not drawn) [Nec-1, Necrostatin-1]
rescue of HSATII LNA-induced growth inhibition [1]: rescued
rescue of HSATII LNA-induced growth inhibition ([2]; DLD1, non-adherent conditions, Nec-1 10 μM): rescued

SEQ ID NO:24: Locked nucleic acids (LNA) probes commercially purchased from Exiqon (GATTCCATTCGATGAT) specifically targeting HSATII (LNA-modified, pattern not given here)
cell proliferation ([3]; COLO205, 500 nM LNA antisense oligonucleotide vs negative control, five days): affected

Nc1ccn([C@H]2CC[C@@H](CO)O2)c(=O)n1 [ddC, 2′, 3′-dideoxycytidine]
cell proliferation ([3]; COLO205, ddC 100 μM vs DMSO): suppressed
sensitivity to ddC ([4]; HCT116, 2D growth conditions): resistant
sensitivity to ddC ([4]; HCT116, 3D growth conditions): resistant
susceptibility to ddC ([4]; 2D culture): resistance
susceptibility to ddC ([4]; 3D culture): resistance
cell proliferation [5]: no effect
sensitivity to ddC ([6]; HCT8, 2D growth conditions): resistant
sensitivity to ddC ([6]; HCT8, 3D growth conditions): resistant
growth inhibition ([6]; HCT8 with shRNA TP53 knockdown, 3D culture, ddC): significant growth inhibition
HSATII RNA species [7]: increasing
levels of endogenous HSATII rdDNA [7]: reduced
growth inhibition ([2]; DLD1, 3 dimensional culture, ddC 5 μM): significant growth inhibition
